This note sets out measurements from EPA's ToxValDB 9.5.

Data set [1] relates to Rattus norvegicus.
Data set [2] relates to Rattus norvegicus. Particulars: oral.
The subject of data set [3] is Rattus norvegicus. As to conditions: oral, gavage; for LD50: acute.
The mark [4] stands for this setting: acute, duration: 4 hours, inhalation, M, Bone Marrow: Bone Marrow Histopathology + Spleen: Spleen Histopathology + Whole Body: Clinical Signs.
Setting [5] is: reproduction developmental, duration: 9 days, inhalation, F, generation: P0, P0: Whole Body: Maternal Body Weight, Initial.
Setting [6] is: reproduction developmental, duration: 9 days, inhalation, M/F, generation: F1, F1: Vertebra: Thoracic Centrum, Dipartite Ossification.
The mark [7] stands for this setting: reproduction developmental, duration: 14 days, oral, gavage, F, Crj:CD, generation: P0, P0: Uterus: >=6 Days of Diestrus + P0: Uterus: Estrous Cycle, Length + P0: Whole Body: Delivery Index + P0: Whole Body: Length of Gestation….
[8] abbreviates: reproduction developmental, duration: 14 days, oral, gavage, M/F, Crj:CD, generation: F1, F1: Whole Body: Live Birth Index + F1: Whole Body: Live Pups Born + F1: Whole Body: Survival + F1: Whole Body: Viability Index.
Where [9] appears, read: reproduction developmental, duration: 42 days, oral, gavage, M, Crj:CD, generation: P0, P0: Whole Body: Percent Mating.
Setting [10] is: short-term, duration: 14 days, oral, gavage, F, Crj:CD, Liver: Cholesterol (CHOL), Total.
[11] abbreviates: subchronic, duration: 42 days, oral, gavage, M, Crj:CD, Adrenal: Adrenal Gland Weight, Absolute + Liver: Aspartate Aminotransferase (AST) + Spleen: Spleen Weight, Relative.

“And” between values parts separate entries of the source, which are not always exact repeats. Identical values can stand only once. Where only a bound is given, the exact number is not on record here.

Usually LOAEL stands for the lowest dose or exposure tested at which an adverse effect was seen. As usually defined, the NOAEL is the highest tested level that showed no adverse finding. With `OC(C(F)(F)F)C(F)(F)F` [2H-Perfluoro-2-propanol], the LOAEL was 5500 mg/m3 in the data set on Rattus norvegicus [1] (setting [4]); 1370 mg/m3 and 1380 mg/m3 in the data set on Rattus norvegicus [1] (acute, duration: 4 hours, inhalation, M, Brain: Brain Histopathology + Brain: Brain Pathology + Duodenum: Duodenum Histopathology + Heart: Heart Histopathology + Kidney: Kidney …); 1380 mg/m3 and 1370 mg/m3 with Rattus norvegicus [1] (setting [5]); 207 mg/m3 and 206 mg/m3 with Rattus norvegicus [1] (reproduction developmental, duration: 9 days, inhalation, M/F, generation: F1, F1: Kidney: Hydronephrosis + F1: Rib: 14th Rudimentary Rib); 1380 mg/m3 and 1370 mg/m3 in the data set on Rattus norvegicus [1] (setting [6]); 300 mg/kg-day in the data set on Rattus norvegicus [1] (reproduction developmental, duration: 14 days, oral, gavage, F, Crj:CD, generation: F1, F1: Whole Body: Pup Weight Relative to Litter). Besides, the LOAEL is 300 mg/kg-day in the data set on Rattus norvegicus [1] (setting [7]); 300 mg/kg-day with Rattus norvegicus [1] (setting [8]); 300 mg/kg-day with Rattus norvegicus [1] (reproduction developmental, duration: 14 days, oral, gavage, M, Crj:CD, generation: F1, F1: Whole Body: Pup Weight Relative to Litter); 300 mg/kg-day with Rattus norvegicus [1] (setting [9]); 300 mg/kg-day in the data set with Rattus norvegicus [1] (short-term, duration: 14 days, oral, gavage, F, Crj:CD, Calcium (CA) + Central Nervous System: CNS Depression + Liver: Hepatocellular Hypertrophy + Liver: Liver Weight, Relative, Recovery + …); 60 mg/kg-day in the data set on Rattus norvegicus [1] (setting [10]). The LOAEL turned out to be 60 mg/kg-day in the data set on Rattus norvegicus [1] (setting [11]); 10 mg/kg-day with Rattus norvegicus [1] (subchronic, duration: 42 days, oral, gavage, M, Crj:CD, Adrenal: Adrenal Gland Weight, Relative); 300 mg/kg-day with Rattus norvegicus [1] (subchronic, duration: 42 days, oral, gavage, M, Crj:CD, Blood: Platelet Count (PLT) + Blood: Reticulocytes + Brain: Brain Weight, Absolute + Brain: Brain Weight, Absolute, Recovery + Central …). In addition, the NOAEL with Rattus norvegicus [1] (setting [4]) is 1370 mg/m3 and 1380 mg/m3; in the data set on Rattus norvegicus [1] (developmental, duration: 9 days, inhalation, M/F, generation: F1, F1: Rib: Rib, Wavy + F1: Skin: Petechial Hemorrhages + F1: Skin: Subcutaneous Hematoma, Small + F1: Skull: Hyoid Body, Unossified + F1: …), 1380 mg/m3 and 1370 mg/m3; in the data set on Rattus norvegicus [1] (reproduction developmental, duration: 9 days, inhalation, F, generation: P0, P0: Ovary: Corpora Lutea + P0: Uterus: Mean Implantations/Litter + P0: Uterus: Resorptions, Early + P0: Uterus: Resorptions, Late + P0: …) it was 1380 mg/m3 and 1370 mg/m3; in the data set on Rattus norvegicus [1] (setting [5]), 207 mg/m3 and 206 mg/m3; in the data set with Rattus norvegicus [1] (setting [6]), 207 mg/m3 and 206 mg/m3; in the data set on Rattus norvegicus [1] (reproduction developmental, duration: 14 days, oral, gavage, F, Crj:CD, generation: P0, P0: Ovary: Corpora Lutea + P0: Uterus: Estrous Cycle, Irregular + P0: Uterus: Estrous Stages/ 21 Days + P0: Uterus: Implantation + P0: …), 300 mg/kg-day. Moreover, the NOAEL turned out to be 60 mg/kg-day in the data set with Rattus norvegicus [1] (setting [7]); 60 mg/kg-day in the data set with Rattus norvegicus [1] (setting [8]); 300 mg/kg-day with Rattus norvegicus [1] (reproduction developmental, duration: 14 days, oral, gavage, M/F, Crj:CD, generation: F1, F1: Whole Body: Male Pups per Pups Sexed + F1: Whole Body: Male Pups per Pups Sexed, Live Offspring); 300 mg/kg-day with Rattus norvegicus [1] (reproduction developmental, duration: 42 days, oral, gavage, M, Crj:CD, generation: P0, P0: Whole Body: Days of Cohabitation + P0: Whole Body: Fertility Index); 60 mg/kg-day in the data set on Rattus norvegicus [1] (setting [9]); 300 mg/kg-day in the data set on Rattus norvegicus [1] (short-term, duration: 14 days, oral, gavage, F, Crj:CD, Adrenal: Adrenal Gland Histopathology + Adrenal: Adrenal Gland Weight, Absolute + Adrenal: Adrenal Gland Weight, Relative + Basophils + …). Moreover, the NOAEL came out at 60 mg/kg-day in the data set with Rattus norvegicus [1] (short-term, duration: 14 days, oral, gavage, F, Crj:CD, Calcium (CA) + Central Nervous System: CNS Depression + Liver: Hepatocellular Hypertrophy + Peripheral Nervous System: Aerial Righting …); 10 mg/kg-day in the data set with Rattus norvegicus [1] (setting [10]); 300 mg/kg-day in the data set with Rattus norvegicus [1] (subchronic, duration: 42 days, oral, gavage, M, Crj:CD, Adrenal: Adrenal Gland Histopathology + Adrenal: Adrenal Gland Weight, Absolute, Recovery + Adrenal: Adrenal Gland Weight, Relative, …); 10 mg/kg-day in the data set with Rattus norvegicus [1] (setting [11]); 60 mg/kg-day in the data set on Rattus norvegicus [1] (subchronic, duration: 42 days, oral, gavage, M, Crj:CD, Blood: Platelet Count (PLT) + Blood: Reticulocytes + Brain: Brain Weight, Absolute + Central Nervous System: CNS Depression + Kidney: Urea …). In the data set with Rattus norvegicus [2] (subchronic, gavage, M, Sprague-Dawley, Clinical Observation: Prone position Lateral position Locomotor activity decrease + Functional Observational Battery: Prone position Lateral…), the NOEL was found to be 10 mg/kg-day.
A word on the LD50: it is the dose at which mortality reaches 50%. Low readings indicate a more toxic substance, high ones a less toxic substance. On to `Cc1ccc(Cl)cc1` [4-Chlorotoluene], for which the NOAEL in the data set on Rattus norvegicus [2] (short-term, duration: 29 days, gavage, M/F, Wistar, Deaths + Clinical Observation: Rough fur Reduced condition Difficulties in breathing Distended abdomen Salivation + Body Weight Changes: …) stood at 200 mg/kg-day; in the data set with Rattus norvegicus [2] (subchronic, duration: 90 days, gavage, M/F, Sprague-Dawley, Deaths + Clinical Observation: Languid behavior Prostration Sensitivity to touch Tremor Epistaxis Wheezing Dyspnea + Body Weight Changes: …), 200 mg/kg-day. Further, in the data set on Rattus norvegicus [3] (Sprague-Dawley), the LD50 is 2350 mg/kg and 1900 mg/kg.
For the molecule `Cc1cc(S(=O)(=O)[O-])c(N=Nc2c([O-])c(C(=O)O)cc3ccccc23)cc1Cl.[Ca+2]` [C.I. Pigment Red 48, calcium salt (1:1)], the NOEL in the data set on Rattus norvegicus [2] (subchronic, gavage, M, Sprague-Dawley, Functional Observational Battery: Grip strength of hind limbs + Relative Organ Weight: Kidneys increase + Histopathology: Kidneys/ proximal …) is 200 mg/kg-day. The same molecule gave an LD50 in the data set on Rattus norvegicus [3] not below 5000 mg/kg.
For `O=C1N(CO)C(O)C(O)N1CO` (stereo unspecified) [Dimethyloldihydroxyethyleneurea], the NOAEL with Rattus norvegicus [2] (subchronic, duration: 90 days, gavage, M/F, Fischer 344, Clinical Observation: Yellow discoloration, abdominal/anogenital region Soft stool Hypoactivity Grasping reflex decrease, Hypothermic …) is 3000 mg/kg-day; in the data set with Rattus norvegicus [3] (developmental, duration: 10 days, Wistar), 640 mg/kg-day; with Rattus norvegicus [3] (reproduction developmental, duration: 14 days, Fischer 344), 4000 mg/kg-day.
`Cn1c(=O)c2[nH]cnc2n(C)c1=O` [Theophylline]: the NOEL is less than 75 mg/kg-day in the data set on Rattus norvegicus [2] (chronic, duration: 14 weeks, diet, F, Fischer 344, Absolute Organ Weight: Right kidney increase, Lung increase + Relative Organ Weight: Right kidney increase, Lungs increase + Histopathology…); less than 78 mg/kg-day in the data set on Rattus norvegicus [2] (chronic, duration: 14 weeks, diet, M/F, Fischer 344, Absolute Organ Weight: Right kidney increase, Lung increase + Relative Organ Weight: Right kidney increase, Lungs increase + Histopathology…); less than 37.5 mg/kg-day in the data set with Rattus norvegicus [2] (chronic, duration: 14 weeks, gavage, M/F, Fischer 344, Deaths + Absolute Organ Weight: Liver increase, Thymus decrease + Relative Organ Weight: Right kidney increase, Liver increase, Uterus …).
With `C=CCN(CC=C)CC=C` [Triallylamine], the NOEL with Rattus norvegicus [2] (short-term, duration: 28 days, gavage, M/F, Sprague-Dawley, Clinical Observation: Locomotor activity decrease, Salivation + Functional Observational Battery: Hind limb grip strength decrease + Body …) was 6 mg/kg-day.
With `Nc1nc(N)c2nc(-c3ccccc3)c(N)nc2n1` [Triamterene], in the data set on Rattus norvegicus [2] (subchronic, duration: 13 weeks, diet, M/F, Fischer 344, Deaths + Body Weight Changes: decrease + Food Consumption: decrease + Histopathology: Kidney-Tubule degeneration Kidney-Cast Kidney-Tubule …), the NOEL stood at 14.4 mg/kg-day.
With `OCCOCCOCCO` [Triethylene glycol], in the data set on Rattus norvegicus [2] (subchronic, duration: 13 weeks, diet, M/F, Fischer 344, Body Weight Changes: Mean body weight decrease, Body weight gain decrease + Urinalysis: Urinalysis', 'Volume increase, pH decrease + …), the NOEL is 1920 mg/kg-day.
As for `CO[Si](C)(OC)OC` [Trimethoxymethylsilane], the NOAEL in the data set on Rattus norvegicus [2] (short-term, duration: 28 days, gavage, M, Sprague-Dawley, Clinical Observation: Inactivity Salivation + Body Weight Changes: Body weight gain decrease + Food Consumption: decrease + Hematology: PT …) was found to be 50 mg/kg-day.
Take `CC(C)(C)OOC(=O)c1ccccc1` [tert-Butyl perbenzoate]: the NOEL with Rattus norvegicus [2] (subchronic, gavage, M/F, Fischer 344, Deaths + Body Weight Changes: decrease + Food Consumption: decrease + Absolute Organ Weight: Spleen decrease, Forestomach increase>60 …) is less than 30 mg/kg-day.
As to `CC(C)(C)c1cc(O)ccc1O` [tert-Butylhydroquinone], the NOEL with Rattus norvegicus [2] (subchronic, duration: 13 weeks, diet, F, Fischer 344, Clinical Observation: Hair discoloration + Body Weight Changes: decrease + Food Consumption: decrease + Blood Chemistry: Bile acid increase…) is 200 mg/kg-day; with Rattus norvegicus [2] (subchronic, duration: 13 weeks, diet, M/F, Fischer 344, Clinical Observation: Hair discoloration + Body Weight Changes: decrease + Food Consumption: decrease + Blood Chemistry: Bile acid increase…) it was less than 240 mg/kg-day.
